# Test results from patent publication US20250057928A1, “VACCINE COMPOSITION FOR INDUCING ANTI-IL-23 ANTIBODY” (OSAKA UNIVERSITY, priority 2021, published 2025).
# Where no end group is shown, it is not given here.
# Tests used:
# [1] = system: recombinant mouse IL-23 protein (rmIL-23); assay: Binding of mouse antiserum to rmIL-23, ELISA; details: antiserum of BALB/c mice
# Description: […] […] Specifically, a 96-well plate immobilized with an epitope peptide dissolved at 10 μg/mL in carbonate buffer was blocked with 5% skim milk/PBS, and then serum serially diluted with 5% skim milk/PBS was added, and the mixture was left standing at 4° C. overnight. After washing the wells with PBS-T, HRP-labeled anti-mouse IgG antibody (GE Healthcare) diluted with 5% skim milk/PBS was added and the mixture was shaken at room temperature for 3 hr. After washing the wells with PBS-T, TMB solution (SIGMA) was added, the wells were allowed to stand for 30 min in the dark, the reaction was stopped by adding 0.5M H2SO4, and the absorbance at 450 nm was measured using a plate reader. The serum dilution rate that gave 1/2 (OD=1.75) of the maximum absorbance was defined as the antibody titer, and the geometric mean titer: GMT was calculated from the individual values. Binding to IL-23 protein was measured by the ELISA method in the same manner as the antibody titer, using rmIL-23 (Antibodies-online GmbH) as the solid-phased antigen and goat serum for blocking.
# AJP001 conjugated peptide (SEQ ID NO: 2) was dissolved in physiological saline and intradermally administered to BALB/c mice (female, 6-week-old, N=6) at 1 mg/body 3 times at two-week intervals, and blood was collected every 2 weeks until 8 weeks. […]
# rhIL-23 = assay: Binding of monkey antiserum to rhIL-23, ELISA; set-up: species or system human; details: monkey antiserum 6 weeks after the initial administration
# Description: AJP001 conjugated peptide (SEQ ID NO: 6) was dissolved in physiological saline and subcutaneously administered to Macaca fascicularis (female, […], N=4) at 5 mg/body 3 times at two-week intervals. Blood was collected every two weeks from the first day of administration until week 16, and the antibody titer (GMT) and binding to IL-23 of the serum at each time point were measured by the ELISA method (same method as in Example 1; the secondary antibody used was Anti-Monkey IgG (Abcam)). In FIG. 7, “*” means P<0.05.
# BALB/c mice = assay: rhIL-23-induced mouse auricle inflammation model; format: in vivo; details: 1 mg/body 3 times
# Description: AJP001 conjugated peptide (SEQ ID NO: 6) was dissolved in physiological saline and administered to BALB/c mice (female, 6-week-old, N=8) at 1 mg/body 3 times at two-week intervals. At the time point of 6 weeks after the initial administration, rhIL-23 was administered intradermally to the ear to induce inflammation. rhIL-23 was administered every day and 4 times in total. As a control group, an rhIL-23 group without administration of AJP001 conjugated peptide was provided. Auricular thickness was measured using a thickness gauge at the time points of 3 days and 4 days after rhIL-23 administration. In addition, the mRNA expression of IL-17A, IL-22, IL-1β, LCN-2, and CXCL-2 in the auricle was measured. The results of efficacy evaluation of the AJP001 conjugated peptide (SEQ ID NO: 6) on auricular thickness and mRNA expression are shown in FIG. 6. In FIG. 6, “*” means that it is significant (P<0.05) compared with “rhIL-23”. “#” means that it is significant (P<0.05) compared with “Normal (normal group)”.
# [2] = system: IL-17 production when mouse splenocytes were stimulated with rhIL-23; assay: Neutralization activity of IgG purified from monkey antiserum: IL-17 production of mouse splenocytes stimulated with rhIL-23; format: cell-based; details: 300 μg/mL of IgG derived from monkey antiserum (6 weeks)
# Description: AJP001 conjugated peptide (SEQ ID NOs: 6-37) was dissolved in physiological saline, mixed with an equal amount of 2% Alhydrogel (invivogen), and this was intradermally administered to BALB/c mice (female, 6-week-old, N=5-6) at 0.5 mg/body 3 times at two-week intervals. Blood was collected before administration and at the time point of 6 weeks after initial administration, and the antibody titer (GMT) to each epitope sequence and binding ability to recombinant human IL-23 protein (rhIL-23) (Peprotech) were measured by the ELISA method (same method as in Example 1). The binding to rhIL-23 was evaluated by a binding ratio to normal serum by calculating the ratio of the absorbance of a well added with normal mouse serum to the absorbance of a well added with antiserum derived from a mouse administered with each AJP001 conjugated peptide (SEQ ID NOs: 6-37). In addition, the neutralization activity of mouse antiserum was evaluated using an action on IL-17 production in rhIL-23 stimulated mouse splenocyte as an index. […]
# Then, IgG was purified using Protein G HP spin Trap (GE Healthcare) from the monkey antiserum obtained 6 weeks after the initial administration, and the action on IL-17 production when mouse splenocytes were stimulated with rhIL-23 was evaluated (same method as in Example 5).
"binding to rmIL-23 ([1]; 0.5 mg/body twice, 5 weeks after initial administration)",binding ability to rhIL-23 (rhIL-23),Substance,"binding ability to rmIL-23 ([1]; 1 mg/body 3 times, 6 weeks)","mRNA expression of IL-17A, IL-22, IL-1β, LCN-2, and CXCL-2 in auricle (BALB/c mice; rhIL-23 to ear)","increase in auricular thickness (BALB/c mice; rhIL-23 to ear daily 4 times from week 6, day 3 and 4)",IL-17 production [2]
confirmed,,SEQ ID NO 2: AJP001-Ahx-B cell epitope peptide conjugate; epitope SSSQQWQR (mouse 152-159) (not fully specified (N-terminus); listed as Mus musculus),contained antibodies that bind to rmIL-23,,,
,showed binding ability,SEQ ID NO 6: AJP001-Ahx-B cell epitope peptide conjugate; epitope SPSQPWQR (human 151-158) (not fully specified (N-terminus); listed as Homo sapiens),,suppressive action,suppressive action,suppressed
